Reference: patent EP1000025B1, “SUBSTITUTED NAPHTHOPYRANS” (TRANSITIONS OPTICAL, INC., priority 1997, dated 1998)

Test: Photochromic response of test square polymerizates on an optical bench
Format: physicochemical
Details: for ΔOD@ SATURATION: UV exposure continued for 20 minutes; for ΔOD@ SATURATION / ΔOD/MIN SENSITIVITY: test squares by method 1, 75°F (23.9°C); for ΔOD/MIN SENSITIVITY: measured over the first five (5) seconds of UV exposure, expressed on a per minute basis; for Bleach (T1/2): time for absorbance of the activated form to reach one half the highest absorbance at room temperature (75°F, 23.9°C) after removal of activating light, method 1; for LAMBDA MAX (VISIBLE): wavelength in the visible spectrum of maximum absorption of the activated (colored) form, diethylene glycol bis(allyl carbonate) composition
Experimental: Testing was done with the photochromic naphthopyrans of the Examples incorporated or imbibed into test square polymerizates by one of two different methods. In Method I, the photochromic naphthopyrans of the Examples were incorporated into polymeric samples. The quantity of naphthopyran calculated to yield a 1.5 times 10^-3 molal solution was added to a flask containing 50 grams of a monomer blend of 4 parts ethoxylated bisphenol A dimethacrylate (BPA 2EO DMA), 1 part poly(ethyleneglycol) 600 dimethacrylate, and 0.033 weight percent 2,2'-azobis(2-methyl propionitrile) (AIBN). The naphthopyrans were dissolved into the monomer blend by stirring and gentle heating, if necessary. After a clear solution was obtained, it was poured into a flat sheet mold having the interior dimensions of 2.2 mm x 6 inches (15.24 cm) x 6 inches (15.24 cm). The mold was sealed and placed in a horizontal air flow, programmable oven set to increase the temperature from 40°C. to 95°C. over a 5 hour interval, hold the temperature at 95°C. for 3 hours and then lower it to 60°C. for at least 2 hours before the end of the curing cycle. After the molds were opened, the polymer sheets were cut using a diamond blade saw into 2 inch (5.1 centimeters) test squares.
In Method II, the photochromic naphthopyran was imbibed into test square polymerizates prepared from a diethylene glycol bis(allyl carbonate) composition. The test squares measured 1/8 inch (0.3 centimeters) x 2 inches (5.1 centimeters) x 2 inches (5.1 centimeters). In the imbibition process, the photochromic naphthopyran was dissolved to form a 10 weight percent solution in a 1:9 mixture of ethyl cellulose:toluene. The solution was then spin coated onto the test squares and allowed to dry. Samples were then heated in a hot-air oven at 135-155°C for a period of time sufficient to thermally transfer the photochromic into the test squares. […] After cooling, the ethyl cellulose/toluene resin film was removed from the test squares by washing with acetone.
The photochromic test squares were tested for photochromic response rates on an optical bench. Prior to testing on the optical bench, the photochromic test squares were exposed to 365 nanometer ultraviolet light for about 15 minutes to activate the photochromic compounds and then placed into a 76°C oven for about 15 minutes to bleach or inactivate the photochromic compounds. The test squares were then cooled to room temperature, exposed to fluorescent room lighting for at least 2 hours and then kept covered for at least 2 hours prior to testing on an optical bench maintained at 75°F (23.9°C). The bench was fitted with a 150 watt Xenon arc lamp, a remote controlled shutter, a copper sulfate bath acting as a heat sink for the arc lamp, a Schott WG-320 nm cut-off filter which removes short wavelength radiation; neutral density filter(s) and a sample holder in which the square to be tested was inserted. A collimated beam of light from a tungsten lamp was passed through the square at a small angle normal to the square. After passing through the square, the light from the tungsten lamp was directed through a photopic filter attached to a detector. The photopic filter passes wavelengths such that the detector mimics the response of the human eye. The output signals from the detector(s) were processed by a radiometer.
Change in optical density (ΔOD) was determined by inserting a test square in the bleached state into the sample holder, adjusting the transmittance scale to 100%, opening the shutter from the Xenon lamp to provide ultraviolet radiation to change the test square from the bleached state to an activated (i.e., darkened) state, measuring the transmittance in the activated state, and calculating the change in optical density according to the formula Δ OD=log(100/%Ta) where %Ta is the percent transmittance in the activated state and the logarithm is to the base 10. […]

COC(=O)c1c2c(c3ccccc3c1O)OC(c1ccccc1)(c1ccc(N3CCOCC3)cc1)C=C2 (stereo not drawn) [Example 1, 2-(4-morpholinophenyl)-2-phenyl-5-methoxycarbonyl-6-hydroxy-2H-naphtho[1,2-b]pyran]
ΔOD@ SATURATION: 1.36
ΔOD/MIN SENSITIVITY: 0.64
Bleach (T1/2): 3.22 min
LAMBDA MAX (VISIBLE): 511

COC(=O)c1c2c(c3ccccc3c1OC)OC(c1ccccc1)(c1ccc(N3CCOCC3)cc1)C=C2 (stereo not drawn) [Example 2, 2-(4-morpholinophenyl)-2-phenyl-5-methoxycarbonyl-6-methoxy-2H-naphtho[1,2-b]pyran]
ΔOD@ SATURATION: 0.95
ΔOD/MIN SENSITIVITY: 0.29
Bleach (T1/2): 4.87 min
LAMBDA MAX (VISIBLE): 541

COC(=O)c1c2c(c3ccccc3c1OC(C)=O)OC(c1ccccc1)(c1ccc(N3CCOCC3)cc1)C=C2 (stereo not drawn) [Example 3, 2-(4-morpholinophenyl)-2-phenyl-5-methoxycarbonyl-6-acetoxy-2H-naphtho[1,2-b]pyran]
ΔOD@ SATURATION: 0.31
ΔOD/MIN SENSITIVITY: 0.24
Bleach (T1/2): 1.47 min
LAMBDA MAX (VISIBLE): 545

COC(=O)c1c2c(c3ccccc3c1OC(C)=O)OC(c1ccc(N(C)C)cc1)(c1ccc(N(C)C)cc1)C=C2 [Example 6, 2,2-bis(4-dimethylaminophenyl)-5-methoxycarbonyl-6-acetoxy-2H-naphtho[1,2-b]pyran]
ΔOD@ SATURATION: 0.07
ΔOD/MIN SENSITIVITY: 0.16
Bleach (T1/2): 0.317 min
LAMBDA MAX (VISIBLE): 618

COC(=O)c1c2c(c3ccccc3c1C)OC(c1ccccc1)(c1ccc(N(C)C)cc1)C=C2 (stereo not drawn) [Example 5, 2-(4-dimethylaminophenyl)-2-phenyl-5-methoxycarbonyl-6-methyl-2H-naphtho[1,2-b]pyran]
ΔOD@ SATURATION: 0.51
ΔOD/MIN SENSITIVITY: 0.20
Bleach (T1/2): 3.33 min
LAMBDA MAX (VISIBLE): 584

COC(=O)c1c2c(c3ccccc3c1OC(C)=O)OC(c1ccccc1)(c1ccc(N(C)C)cc1)C=C2 (stereo not drawn) [Example 4, 2-(4-dimethylaminophenyl)-2-phenyl-5-methoxycarbonyl-6-acetoxy-2H-naphtho[1,2-b]pyran]
ΔOD@ SATURATION: 0.30
ΔOD/MIN SENSITIVITY: 0.27
Bleach (T1/2): 1.17 min
LAMBDA MAX (VISIBLE): 591
